{"source": "patent US6471958B2", "about": "“Non-contracting tissue equivalent” (University of North Texas Health Science Center, priority 1998, dated 2002)", "key": {"[1]": {"tested_on": "normal human keratinocytes", "conditions": "for OUTCOME (neutral red viability): Keratinocytes, Continuous 12 hrs or 90 min/day for 10 days", "quoted_text": "Human skin pieces (5 cm squares) were incubated at 4° C. in a solution of 20U/ml dispase (Collaborative Research; 5 mg collagen/cm2) in KGM (Keratinocyte Growth Medium, Clonetics Corp.), for 48 hours. The epidermis was separated from the dermis and dispersed in a solution containing 0.025% trypsin and 0.02% EDTA, by incubation at 37° C. and vigorous pipetting, to produce a single cell suspension. The resulting keratinocytes were then plated into tissue culture flasks coated with collagen VII, and cultured in KGM, a serum free defined medium at 37° C. (5% CO2, 97% humidity). […] The cells were harvested with 0.05% trypsin, 0.02% EDTA, and passaged in their respective media or used for construction of dermal and skin equivalents. For experimental treatments the cells were plated into 25 cm tissue culture flasks (T-25), 6 well tissue culture (TC) plates (9.6 cm^2/well), or 4 well TC plates (2 cm^2/well).\n(§2) The cells, DEs, or tissue equivalent products, contained in TC plates, were transferred into the treatment chamber, the lids were removed, and the TC plates covered with sterile gauze. […] The treatment pressure was maintained for 90 minutes. At the conclusion, decompression was carried out slowly over a five-minute period, and the treated cultures returned to the CO2 incubator. The treatments were repeated for 2, 5, or 10 consecutive days, and a normal medium change schedule was maintained.\n(§3) The cells and equivalents were incubated in 1 ml of neutral red solution (1 mg/ml in appropriate media) for 4 hours at 37° C. The effects on the cells (fibroblasts/keratinocytes) were evaluated microscopically and photographically recorded. The entry of neutral red into the cells signified that they were viable."}, "[2]": {"tested_on": "normal human dermal fibroblasts monolayers", "conditions": "for cell proliferation (cell numbers): 90 min./day for ten days", "experimental": "(§1) The cells, DEs, or tissue equivalent products, contained in TC plates, were transferred into the treatment chamber, the lids were removed, and the TC plates covered with sterile gauze. The treatment chamber was sealed, the oxygen (100%) was blown through slowly to expel all the air (2 min.), and the chamber brought up to the appropriate pressure over a period of five minutes. The treatment pressure was maintained for 90 minutes. At the conclusion, decompression was carried out slowly over a five-minute period, and the treated cultures returned to the CO2 incubator. The treatments were repeated for 2, 5, or 10 consecutive days, and a normal medium change schedule was maintained."}, "[3]": {"tested_on": "normal human keratinocyte monolayers", "conditions": "periodic HBO treatment", "experimental": "as §1"}, "[4]": {"tested_on": "human skin equivalent product", "conditions": "90 minutes/day for 10 days", "experimental": "as §1"}, "[5]": {"tested_on": "normal human dermal fibroblasts", "quoted_text": "Collagen production by near confluent monolayer of dermal fibroblasts was determined by measuring the incorporation of tritiated proline [3H-proline] into bacterial collagenase-sensitive protein [Postlethwaite et al., Proc. Nat. Acad. Sci. (USA) 75:871-875 (1978)] using an extensively modified method of Peterkofsky and Diegelmann, Developmental Biology 28:443-453 (1972). The wells of a six well TC plate (Falcon 3008) were seeded with 5×10^5 fibroblasts and were cultured in DMEM containing 5% FBS for 72 hr at 37° C. (humidified 5% CO2 incubator). The medium was then replaced with serum free DMEM lacking in nonessential amino acids (500 ml), and containing 5 μC L-proline[2,3-3H] (20 Ci/mM, NEN, Boston, Mass.), and the hyperbaric treatments initiated. After 48 and 120 hours, two aliquots (200 ml) of culture supernatant were removed from each well. One aliquot was used to quantitate total protein production as follows: supernatant (200 ml) was added to 0.2 M Tris/0.3 M CaCl2 buffer (pH 7.5, 70 ml), FBS (25 ml),N-ethylmaleimide (NEM, 30 ml), and a 0.75% solution of tannic acid (TA) in 50% trichloroacetic acid 9TCA) (75 ml). […] The filters, placed in scintillation vials containing 5 ml Aquasol (New England Nuclear), were chilled for 4 hr, and counted in a liquid scintillation counter.\nThe second aliquot of was used to quantitate the noncollagen protein as follows: supernatant (200 ml) was added to 0.2 M Tris/0.3 M CaCl2 buffer (pH 7.5, 50 ml), NEM (30 ml) and bacterial collagenase (20 ml) (Worthington Biochemical Corp., Freehold, N.J.), purified just before use by gel filtration on Sephadex G-200 to remove proteinases. […] The precipitate was collected on glass fiber filters, and the radioactivity was measured by scintillation counting.\nDe novo synthesized collagen by each fibroblast culture was determined by substracting the noncollagen protein from the total proteins synthesized. Samples were assaved in quadruplicate or triplicate and the data are expressed as mean epm (+SEM) and/or percent of collagen produced relative to control cultures. […]"}, "[6]": {"tested_on": "Fibroblasts in Dermal Eq. on Grids", "conditions": "90 min/day for 10 days", "quoted_text": "Dermal equivalents were constructed at 4° C. by mixing 8 parts collagen (Type I acid solubilized, ICN Cellagen®; 3 mg/ml), 1 part of 10×Ham's F-12 medium, 1 part buffer (200 mM HEPES, 25 mM Na2CO3 and 50 mMN NaOH) and inoculating with dermal fibroblasts (1×10^5 cells/ml at 4° C.). For experimental treatments DE were cast in 4 or 12 well tissue culture plates and were maintained at 37° C. in Ham's F-12 Medium containing 5% FBS. Fibroblasts regained their normal morphology within 48 hours, after which DE were maintained in modified Ham's F-12 Medium, changing the media every 48 hours.\nas §2, §3"}, "[7]": {"tested_on": "normal human skin fibroblasts", "quoted_text": "Dermal fibroblasts were obtained as outgrowths from explanted dermal tissue, after incubation at 37° C. 5% CO2 97% humidity) in DMEM containing 10% FBS. The cells were harvested with 0.05% trypsin, 0.02% EDTA, and passaged in their respective media or used for construction of dermal and skin equivalents. For experimental treatments the cells were plated into 25 cm tissue culture flasks (T-25), 6 well tissue culture (TC) plates (9.6 cm^2/well), or 4 well TC plates (2 cm^2/well).\nas §2, §3"}, "[8]": {"tested_on": "HUSE Product", "conditions": "for OUTCOME (neutral red viability): HUSE Product, 90 min/day for 10 days"}, "[9]": {"tested_on": "Fibroblasts in Dermal Eq. Submerged", "conditions": "90 min/day for 10 days"}, "[10]": {"conditions": "90 minutes, DMEM, KBM", "experimental": "A method similar to that described by Rafi et al., Am. J. Med. Genetics 61:299-303 […] was used to measure the partial pressure of oxygen (pO2) dissolved in the culture medium bathing the cells. To each well of a multiwell tissue culture (TC) plate was added the appropriate culture medium to a depth of 2 mm. The TC plates were then placed in the treatment chamber, the chamber was flushed out with oxygen for five minutes and then pressurized over an additional five minute period. The pressure was maintained for 90 minutes after which time period the treatment chamber was decompressed over a period of five minutes. The TC plates were then removed from the chamber and the pO2 measurement taken within two minutes using a polarographic oxygen electrode (Diamond General Development Corporation, Ann Arbor, Mich.). Dissolution of oxygen at four different pressures was measured in three different media."}}, "note": "Read-outs that look alike come from different tables or passages of the source.", "data": [{"smiles": "O=O", "note": "[100% O2, oxygen]", "values": [{"measurement": "OUTCOME (neutral red viability)", "setting": "[1]; 760 mm Hg", "result": "Non-Toxic"}, {"measurement": "OUTCOME (neutral red viability)", "setting": "[1]; 1520 mm Hg", "result": "Non-Toxic"}, {"measurement": "OUTCOME (neutral red viability)", "setting": "[1]; 2280 mm Hg", "result": "Non-Toxic"}, {"measurement": "toxicity", "setting": "[1]; keratinocyte monolayer cultures, any pressure", "result": "No toxicity"}, {"measurement": "cell proliferation (cell numbers)", "setting": "[2]; 1 atm. Donor", "result": "Stimulation of cell proliferation"}, {"measurement": "cell proliferation (cell numbers)", "setting": "[2]; 2.5 atm. Donor", "result": "Stimulation of cell proliferation"}, {"measurement": "cell proliferation (cell numbers)", "setting": "[2]; 3 atm, donor", "result": "consistently non-stimulating and perhaps marginally anti-mitotic"}, {"measurement": "effect on fibroblast mitosis", "setting": "[2]; oxygen pressures above about three atmospheres", "result": "antimitotic"}, {"measurement": "cell number", "setting": "[3]; 1 atm.", "result": "consistently indistinguishable from the controls"}, {"measurement": "cell number", "setting": "[3]; 2 atm.", "result": "not as mitotic as the latter"}, {"measurement": "cell number", "setting": "[3]; 2.5 atm.", "result": "not as mitotic as the latter"}, {"measurement": "cell number", "setting": "[3]; 3 atm.", "result": "a constant number of cells, well below the numbers obtained in other treatments"}, {"measurement": "cornification of the epidermal layer", "setting": "[4]", "result": "particularly stimulated"}, {"measurement": "epidermal thickness", "setting": "[4]; 1 and 2 atm of 100% oxygen, vs untreated control", "result": "progressive increase in epidermal thickness"}, {"measurement": "collagen synthesis", "setting": "[5]; 1 atmosphere, after two days of treatment", "result": "elevated"}, {"measurement": "levels of collagen synthesis", "setting": "[5]; five days vs two days of treatment, all pressure levels", "result": "higher after five days of treatment than after two days"}, {"measurement": "collagen synthesis", "setting": "[5]; with increased HBO", "result": "inhibition of collagen synthesis"}, {"measurement": "OUTCOME (neutral red viability)", "setting": "[6]; 760 mm Hg", "result": "Non-Toxic"}, {"measurement": "OUTCOME (neutral red viability)", "setting": "[6]; 1520 mm Hg", "result": "Some Toxicity"}, {"measurement": "OUTCOME (neutral red viability)", "setting": "[6]; 2280 mm Hg", "result": "Some Toxicity"}, {"measurement": "OUTCOME (neutral red viability)", "setting": "[7]; 3 hrs/day for 5 days, 320 mm Hg", "result": "Non-Toxic"}, {"measurement": "OUTCOME (neutral red viability)", "setting": "[7]; 3 hrs/day for 5 days, 480 mm Hg", "result": "Non-Toxic"}, {"measurement": "OUTCOME (neutral red viability)", "setting": "[7]; 3 hrs/day for 5 days, 760 mm Hg", "result": "Non-Toxic"}, {"measurement": "OUTCOME (neutral red viability)", "setting": "[7]; Continuous 12 hrs, 760 mm Hg", "result": "Non-Toxic"}, {"measurement": "OUTCOME (neutral red viability)", "setting": "[7]; Continuous 12 hrs, 1520 mm Hg", "result": "Some Toxicity"}, {"measurement": "OUTCOME (neutral red viability)", "setting": "[7]; Continuous 12 hrs, 1520 mm Hg, listed as 100% oxygen", "result": "some toxicity"}, {"measurement": "OUTCOME (neutral red viability)", "setting": "[7]; Continuous 12 hrs, 2280 mm Hg", "result": "Some Toxicity"}, {"measurement": "OUTCOME (neutral red viability)", "setting": "[7]; Continuous 12 hrs, 2280 mm Hg, listed as 100% oxygen", "result": "some toxicity"}, {"measurement": "OUTCOME (neutral red viability)", "setting": "[8]; 760 mm Hg", "result": "Non-Toxic"}, {"measurement": "OUTCOME (neutral red viability)", "setting": "[8]; 1520 mm Hg", "result": "Non-Toxic"}, {"measurement": "OUTCOME (neutral red viability)", "setting": "[8]; 2280 mm Hg", "result": "Non-Toxic"}, {"measurement": "adverse effect on developing HUSE products", "setting": "[8]; up to 3 atmospheres", "result": "not adversely affected"}, {"measurement": "OUTCOME (neutral red viability)", "setting": "[9]; 760 mm Hg", "result": "Non-Toxic"}, {"measurement": "OUTCOME (neutral red viability)", "setting": "[9]; 1520 mm Hg", "result": "Non-Toxic"}, {"measurement": "OUTCOME (neutral red viability)", "setting": "[9]; 2280 mm Hg", "result": "Non-Toxic"}, {"measurement": "MEASURED pO2 (Mean of three readings)", "setting": "[10]; applied O2 pressure 1 atm. - 760 mm Hg, KGM", "result": 316, "unit": "mm Hg"}, {"measurement": "MEASURED pO2 (Mean of three readings)", "setting": "[10]; applied O2 pressure 2 atm. - 1520 mm Hg, KGM", "result": 800, "unit": "mm Hg"}, {"measurement": "MEASURED pO2 (Mean of three readings)", "setting": "[10]; applied O2 pressure 2.5 atm. - 1900 mm Hg, KGH", "result": 941, "unit": "mm Hg"}, {"measurement": "MEASURED pO2 (Mean of three readings)", "setting": "[10]; applied O2 pressure 3 atm. - 2280 mm Hg, KGM", "result": 1215, "unit": "mm Hg"}]}]}
